Data reported in patent US20220090209A1, “RETROTRANSPOSON BIOMARKERS” (VIB VZW, priority 2019, published 2022).

Assays:
4T1 cells = experiment: Retrotransposon expression in 4T1 cells in vitro; type: cell-based, mouse
Procedure: (§1) Where indicated, cells were pre-treated with 5-aza-2′-deoxycytidine (aza, 1 μM) for 3 days by adding the correct volume to fresh culture medium while using an equal volume of the carrier (DMSO) as control. This was followed by another day of exposure to aza in hypoxia or normoxia, bringing the total aza exposure time for experiments to 4 days. 2 mM of DMOG (dimethyloxalylglycine, Sigma) was added to culture medium for 24 hours where indicated.
(§2) mRNA capture and stranded library preparation of RNA from MCF7 cells, mouse cell lines and tumours for the purpose of retrotransposon expression analysis was performed using the KAPA Stranded mRNA-Seq Kit (Illumina) according to the provided protocol.
(§3) RNA-seq data were expressed in transcript per million (TPM), 0.01 offset. Expression read counts of retrotransposons are calculated using the RepEnrich tool (https://github.com/nerettilab/RepEnrich), and normalized to the total mappable read depth. The repeat genome of the human reference genome hg19 was download from the RepEnrich website. Human retrotransposon classes (LINE, SINE, LTR) contain 16 families and 779 subfamilies. The repeat genome of the mouse genome mm10 was built using the repeat masker track from the UCSC genome browser. Mouse retrotransposon classes (LINE, SINE, LTR) contain 24 families and 906 subfamilies.

MCF7 cells [1] = experiment: DNA methylation in aza-treated MCF7 cells (LC-ESI-MS/MS of 5mC, BS-seq); type: cell-based, human
4T1^Hif1b-KO grafts = experiment: 4T1 Hif1b-KO grafts in mice treated with aza or vehicle; type: in vivo, mouse
Text: (§4) Four gRNAs targeting two different exons in the Hif1b locus of the mouse genome and one non-targeting gRNA (scramble) were designed with the appropriate restriction sites for the receiver plasmid using the online Crispor tool (http://crispor.tefor.net). Oligonucleotides corresponding to gRNAs were synthesized by IDT, and forward and reverse oligonucleotides were annealed in the CutSmart buffer (B7240S, NEB) before cloning into the LentiGuide-Puro plasmid (Plasmid 52963, Addgene). Positive colonies were screened by PCR and validated by Sanger sequencing. LentiGuide-Puro plasmids containing GFP was used as positive control to evaluate the transfection- and transduction-efficacy.
(§5) 4T1 cells were transduced with a lentiviral vector expressing a doxycycline inducible Cas9 nuclease (Cat #CAS11229, Dharmacon) for a tight regulation of the Cas9 expression and gene editing. An infection rate of 30% was used to ensure that the majority of transduced cells harbour a single copy of the vector. These 4T1 cells were always kept in selection medium containing 10 μg/mL of blasticidin (ant-bl-05, Invivogen). When reaching 70% confluency, cells were transduced with one titer of virus. After 24h, the virus was removed and transduction efficacy evaluated based on GFP expression. After 48h, puromycin (P9620, Sigma-Aldrich) 1.5 μg/mL medium was added to the medium. Cells were kept in the presence of blasticidin and puromycin for the remaining experimental procedures. After 3-5 days, Cas9 expression was induced by adding […] (D2975000, Sigma-Aldrich) 0.5 μg/mL medium for 3 days. Cells were kept one day without […] before injection in the mice or further experimental procedures. 4T1 cells transduced with the four gRNAs targeting Hif1b were expanded and proteins were extracted to test the efficacy of the knockout by western blot. […]
(§6) All the experimental procedures were approved by the Institutional Animal Care and Research Advisory Committee of the KU Leuven. […] Tumour volumes were monitored every two to three days by a calliper, and mice were culled before tumour volumes exceeded 2,000 mm^3. […]

4T1 tumours [2] = experiment: Growth of orthotopic 4T1 tumours in mice; type: in vivo, mouse; details: aza versus vehicle, P=3.0×10^-3
Procedure: (§7) All the experimental procedures were approved by the Institutional Animal Care and Research Advisory Committee of the KU Leuven. 1×10^6 4T1 cells, Hif1b-knockout or wild-type (scramble), were injected orthotopically in the mammary gland of 10 weeks old Balb/c mice, and 1×10^6 CT26 or MC38 cells were injected subcutaneously in 10 weeks old Balb/c or C57BL/6J mice, respectively. When the tumour was palpable (starting volume 100 mm^3), the mice were injected intraperitoneally with 0.8 mg/kg of 5-aza-2′-deoxycytidine (aza) or PBS, 40 mg/kg DC101 antibody (BE0089, InVivoMab) or IgG (BE0060, InVivoMab) or 10 mg/kg anti-PD1 antibody (6E0146, InVivoMab) or IgG antibody (BE0089, InVivoMab) according to the following schedules: DC101 three times per week; anti-PD1 every other day, starting when the tumour size was around 200 mm^3; aza was administered in 2 cycles with 2-days rest in between until the control tumours reached the endpoint. Tumour volumes were monitored every two to three days by a calliper, and mice were culled before tumour volumes exceeded 2,000 mm^3. When over 20% of mice were culled, the experiment was terminated (all arms). In vivo experiments in 4T1, CT26 and MC38 treated with aza or anti-PD1 antibody were performed three times, with at least 6 mice per treatment group in each experiment.

[3] = test system: HIF1β binding peaks in MCF7 cells; experiment: HIF1β ChIP-seq in hypoxic vehicle- and aza-treated MCF7 cells
4T1^Hif1b-scr grafts = experiment: 4T1 Hif1b-scr (scramble-control) grafts in mice treated with aza or vehicle; type: in vivo, mouse
Text: as §4, §5, §6

MCF7 cells [4] = experiment: Retrotransposon expression by mRNA-seq and RepEnrich in MCF7 cells; type: cell-based, human
Procedure: as §1, §2, §3

4T1 tumours [5] = experiment: Immunofluorescence of 4T1 tumours (CD31, pimonidazole, CD8, granzyme B); type: in vivo, mouse; details: aza versus vehicle
Procedure: as §7, with “experiment. […]” for “experiment.”

[6] = test system: HIF1B-knockout MCF7 cells; experiment: Retrotransposon expression by mRNA-seq and RepEnrich in HIF1B-knockout MCF7 cells; type: cell-based, human
Procedure: MCF7, RCC4, SK-MEL-28, A549, 4T1, MC38 and CT26 cell lines were obtained from the American Type Culture Collection and their identity was not further authenticated. These are not listed in the database of commonly misidentified cell lines maintained by ICLAC. MCF7 HIF1B-knockout cells were previously described (Ahmed et al. 2013, Toxicol Sci 138:89-103). MCF7, RCC4, A549, MC38 and 4T1 cells were cultured at 37° C. in Dulbecco's modified Eagle medium (DMEM) with 10% fetal bovine serum (FBS), 5 mL of 100 U/mL Penicillin-Streptomycin (Pen Strep, Life Technologies) and 5 mL of L-Glutamine 200 mM. SK-MEL-28 and CT26 cell lines were cultured at 37° C. in Roswell Park Memorial Institute 1640 Medium (RPMI) with 10% FBS 1% Penicillin-Streptomycin and 1% L-Glutamine.
as §1, with “2 mM of DMOG (dimethyloxalylglycine, Sigma) was added to culture medium for 24 hours where indicated.” left out
RNA-seq data were expressed in transcript per million (TPM), 0.01 offset. Expression read counts of retrotransposons are calculated using the RepEnrich tool (https://github.com/nerettilab/RepEnrich), and normalized to the total mappable read depth. […]

4T1 tumours [7] = experiment: RNA-seq of 4T1 tumours from treated mice (retrotransposon expression, immune signatures); type: in vivo, mouse
Procedure: as §2, §3, §7

[8] = aza versus PBS, GSVA on immune metagenes

Nc1ncn([C@H]2C[C@H](O)[C@@H](CO)O2)c(=O)n1 [aza, 5-aza-2′-deoxycytidine]
retrotransposon expression (4T1 cells): increase | overall reduction of DNA methylation (MCF7 cells [1]; MCF7 cells pharmacologically demethylated with aza (1 μM, 4 days)): 70.5±5.5% | reduced methylation at new HIF1β binding sites in aza-treated cells (MCF7 cells [1]; aza-treated versus untreated MCF7 cells): 2.5 fold | cancer testis antigen expression (4T1^Hif1b-KO grafts; aza treatment): significant upregulation | graft size (4T1^Hif1b-KO grafts; aza versus vehicle, P=0.21): failed to show this reduction | number of activated T cells (4T1^Hif1b-KO grafts; following aza): failed to show such increase | change in tumour growth (4T1 tumours [2]): −32% | new HIF1β binding peaks exposed ([3]; HIF1β ChIP-seq, hypoxia 0.5% O2 16 hours): 1,236 | fraction of aza-specific HIF1β binding peaks in retrotransposons ([3]; versus 4.1% in vehicle-treated MCF7 cells): 8.1% | enrichment of novel aza-specific HIF1β binding peaks for retrotransposons ([3]; versus peaks in vehicle-treated MCF7 cells): 2 fold | cancer testis antigen expression (4T1^Hif1b-scr grafts; aza treatment): significant upregulation | graft size (4T1^Hif1b-scr grafts; aza versus vehicle, P=0.021): significantly reduced size | number of activated T cells (4T1^Hif1b-scr grafts; following aza): increased | increase in expression of the 176 retrotransposon subfamilies bound by HIF1β (MCF7 cells [4]; aza alone): 23% | expression of the 59 retrotransposons correlated with cytolytic activity (MCF7 cells [4]; aza-treated MCF7 cells, P<0.05): upregulated | average increase in retrotransposon expression (MCF7 cells [4]; combined aza and chronic (4-day) hypoxia): 45% | increase in expression of the 176 retrotransposon subfamilies bound by HIF1β (MCF7 cells [4]; combined aza and hypoxia (24 hours, 0.5% O2)): 27% | increase in number of activated, granzyme B-positive T cells (4T1 tumours [5]; P<0.05): 2.1 fold | T-cell infiltration (4T1 tumours [5]; immunofluorescence of CD8+ T cells): unaffected | retrotransposon overexpression (increase) ([6]; aza alone): 25% | retrotransposon overexpression (increase) ([6]; aza in hypoxia): 20% | activated T cell and natural killer cell signatures (4T1 tumours [7]; [8]): upregulated | myeloid-derived suppressor cell signatures (4T1 tumours [7]; [8]): downregulated | cell proliferation marker expression (4T1 tumours [7]; aza versus vehicle): did not reduce | retrotransposon expression (4T1 tumours [7]; in vivo, aza versus vehicle): increased
